Where two headings read alike, the source gives them in different places.
Key:
[1] = test system: Vero cells; conditions: monkey, 120 h
Experimental: This screen was designed to identify compounds which inhibit HSV-1 in phases of its life cycle from adsorption and penetration through late gene expression. The primary screen, AVUS1, involves adding single compounds to a monolayer of Vero cells to a final concentration of 25 μg/mL, then infecting the cells with a recombinant HSV-1, Us3::Tn5-lacZ. This virus contains an insertion of a lacZ gene driven by a viral late promoter in the US3 protein kinase gene of HSV-1. The infection is allowed to proceed for 20 hours, then the cells are lysed with a solution of Triton X-100 and CPRG in "Z" buffer and assayed for β-galactosidase activity. The positive control used is solvent alone without compound, which corresponds to 0% inhibition, and the negative control used is either no virus added to the wells or 0.5% Triton X-100 added to the wells, which corresponds to 100% inhibition. Percent inhibition of a compound is then calculated using these positive and negative controls. […] In AVUS3, the test compound is dissolved in MeOH at 20 mM. A titration of the compound is then assayed in both the same β-galactosidase virus replication inhibition assay and a 5-day XTT toxicity assay. […]

[2] = test system: wild type HSV-1; experiment: PRA (plaque reduction assay with wild type HSV-1); type: cell-based; conditions: read-out: IC50 Inhibitory Activity (PRA)
[3] = test system: herpesvirus; experiment: SGC anti-herpesvirus assay; type: cell-based; conditions: read-out: IC50 Inhibitory Activity (SGC)
[4] = test system: OM-10.1 cells; experiment: inhibition of HIV-1 activation / HIV expression in chronically infected OM-10.1 cells (TNF-α induced); type: cell-based, human immunodeficiency virus type 1 (HIV-1); conditions: Human immunodeficiency virus 1
Text: The cellular pathways involved in mediating the activating signal from the plasma membrane to the integrated virus, resulting in HIV-1 expression, are much less clear. Recently, the development of a reliable and simple system for evaluating compounds that could prevent activation of latent HIV was reported at a National Cooperative Discovery Grant (NCDDG)/AIDS meeting by P. Feorino, S. T. Butera, T. M. Folks, and R. F. Schinazi, Nov. 3-7, 1991. The assay system employed the OM-10.1 cell line, a unique chronically-infected promyelocytic clone which remains CD4+ until HIV-1 activation with tumor necrosis factor-α. The expression of CD4+ on the cell surface and the activity of reverse transcriptase are used as markers for quantitating viral expression. Alternatively, other HIV markers, such as protease activity, which are known to those of skill in the art can be used. OM-10.1 cells remain CD4+ until viral activation and respond to tumor necrosis factor induction, and therefore, these cultures are used to conveniently and rapidly examine pharmacologics for an ability to prevent CD4+ down modulation (decrease in expression of CD4+ on the cell surface) and HIV-1 expression.
A variety of compounds known to have antiviral properties against either acutely or chronically infected cells were evaluated for their ability to inhibit HIV expression in these OM-10.1 cells. […]

[5] = test system: OM-10.1 cells; conditions: NCDDG/AIDS poster, San Diego, Nov. 3-7 (1991); cited from earlier work
[6] = test system: TPA-mediated CD4 down regulation and HIV expression; conditions: Hamamoto et al. 1989; cited from earlier work

COc1ccc2sc3c(c2c1)SCCNC3=O [2,3-Dihydro-9-methoxy[1]benzothieno[2,3-f]-1,4-thiazepin-5(4H)-one]
CC50 [1]: 60 µM | IC50 ([2]; Human alphaherpesvirus 1, PRA): 450 nM | IC50 ([2]; PRA): 550 nM | IC50 [3]: 350 nM | IC50 [4]: 210 nM

Cc1cn([C@H]2C[C@H](F)[C@@H](CO)O2)c(=O)[nH]c1=O [3'-fluoro-3'-deoxythymidine (FLT), 3'-fluoro-3'-deoxythymidine]
inhibition of the activation of HIV-1 (in words) [5]: modest inhibitors of the activation of HIV-1

CCCCCCCCCCCCCC(=O)O[C@@H]1[C@@H](C)[C@@]2(O)[C@@H](C=C(CO)C[C@]3(O)C(=O)C(C)=C[C@@H]23)[C@@H]2C(C)(C)[C@]12OC(C)=O [12-O-tetradecanoylphorbol-13-acetate]
effect on CD4 and viral expression in HIV-infected cells (in words) [6]: mediates CD4 down regulation and viral expression in HIV-infected cells

CC(=O)N(O)CCCCCNC(=O)CCC(=O)N(O)CCCCCNC(=O)CCC(=O)N(O)CCCCCN [desferrioxamine]
inhibition of the activation of HIV-1 (in words) [5]: modest inhibitors of the activation of HIV-1
